Results on ten molecules are retold here after ChEMBL document CHEMBL1201862, “PubChem BioAssay data set” (2004).

Assay in all cases: NCI-60 cell line screen, 48 h
In experiment [1] the test system is SNB-19.
The test system of experiment [2] is SW-620.
Experiment [3] relates to NCI-H23.
Experiment [4] concerns COLO 205.
The test system of experiment [5] is CCRF-CEM.
In experiment [6] the test system is OVCAR-8.
Experiment [7] has as its system OVCAR-3.
Experiment [8] relates to A549.
Experiment [9] concerns SK-MEL-28.
Experiment [10] concerns HT-29.
Experiment [11] relates to IGROV-1.
Experiment [12] has as its system HCT-116.
In experiment [13] the test system is SF-539.
The test system of experiment [14] is KM12.
Experiment [15] relates to SF-295.
Experiment [16] has as its system ACHN.
Experiment [17] has as its system RXF 393.
The test system of experiment [18] is SK-MEL-5.
For experiment [19], the system named is U-251.
Experiment [20] has as its system UACC-257.

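Step 1: Grow cells in 96-well plates. Step 2: Expose to compound for 48 hours at 5 concentrations. Step 3: Interpolate endpoints linearly; if unreached, use highest concentration. Here, GI50 denotes the concentration required for 50% inhibition of growth.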 Calls of active or inactive are those of the source. Rule as the data show it: active = GI50 up to about 1.1 µM and inactive = higher. Bounds are passed on as bounds.

As to `CC(C)N1CSC(=S)N(Cc2ccccc2)C1`, the GI50 was 0.752 µM (active) in experiment [1]; 3.18 µM (inactive) in experiment [2]; 3.1 µM (inactive) in experiment [3]; 3.94 µM (inactive) in experiment [4]; 2.78 µM (inactive) in [5]; 4.75 µM (inactive) in experiment [6]. Moreover, the GI50 in [7] was 3.87 µM (inactive); in experiment [8] it was > 10 µM (inactive); in [9] it was 3.78 µM (inactive); in experiment [10], 2.43 µM (inactive); in experiment [11], > 10 µM (inactive); in experiment [12], 3.01 µM (inactive). Also, the GI50 in experiment [13] was 1.48 µM (inactive); in [14], 3.36 µM (inactive); in experiment [15] it was > 10 µM (inactive); in [16] it was > 10 µM (inactive); in experiment [17], 2.37 µM (inactive); in experiment [18], 4.66 µM (inactive). In addition, the GI50 in experiment [19] is > 10 µM (inactive).
`COc1cc2cc3c4cc(OC)c(OC)cc4cc[n+]3cc2cc1OC`: the GI50 in experiment [1] is 15.2 µM (inactive); in experiment [2], > 100 µM (inactive); in [3], > 76.7 µM (inactive); in [4] it was 78.2 µM (inactive); in experiment [5] it was > 100 µM (inactive); in [6] it was > 100 µM (inactive). In addition, the GI50 was > 45.5 µM (inactive) in [7]; > 100 µM (inactive) in [8]; > 100 µM (inactive) in experiment [9]; > 100 µM (inactive) in experiment [10]; > 100 µM (inactive) in experiment [11]; > 100 µM (inactive) in experiment [12]. The GI50 in [13] is > 100 µM (inactive); in experiment [20], > 100 µM (inactive); in [14], > 100 µM (inactive); in experiment [15], > 100 µM (inactive); in experiment [17], 46.6 µM (inactive); in [18], > 100 µM (inactive). For the same molecule, the GI50 in experiment [19] was 9.46 µM (inactive).
As to `S=CN1CCCCC1`, the GI50 in [1], in [2], in [3], in experiment [4], in [5] and in experiment [6] was > 100 µM (inactive) in each case. Further, the GI50 in experiment [7], in [8], in [9], in [10], in experiment [11] and in experiment [12] was > 100 µM (inactive) in each case. Moreover, the GI50 in experiment [13], in experiment [20], in [14], in experiment [15], in experiment [16] and in [18] was > 100 µM (inactive) throughout. Besides, the GI50 in experiment [19] is > 100 µM (inactive).
For the molecule `CCOC(=O)C1=C(C)N(c2ccc(OC)cc2)C2(O)C=CC(O)=C3C(=O)c4ccccc4C(=O)C312` (centres undefined), the GI50 is 13 µM (inactive) in experiment [1]; 13.5 µM (inactive) in experiment [2]; 16.1 µM (inactive) in [3]; 11.5 µM (inactive) in experiment [4]; 3.4 µM (inactive) in experiment [5]; 14.9 µM (inactive) in [6]. For the same molecule, the GI50 was 3.06 µM (inactive) in experiment [7]; 11.1 µM (inactive) in experiment [8]; 17.9 µM (inactive) in experiment [10]; 3.56 µM (inactive) in experiment [11]; 11.3 µM (inactive) in experiment [12]; 6.92 µM (inactive) in experiment [13]. For the same molecule, the GI50 in experiment [20] is 15.7 µM (inactive); in experiment [14] it was 12.9 µM (inactive); in [15], 8.77 µM (inactive); in experiment [16], 14.3 µM (inactive); in experiment [18] it was 11.4 µM (inactive); in experiment [19] it was 8.49 µM (inactive).
For `CC1=C(C(=O)Nc2cccc(Cl)c2)C(c2ccccc2O)C(C(=O)Nc2cccc(Cl)c2)=C(C)N1`, the GI50 in experiment [1] was 26.1 µM (inactive); in experiment [2], 18.6 µM (inactive); in experiment [3], 17.3 µM (inactive); in experiment [4], 20 µM (inactive); in experiment [5], 22.3 µM (inactive); in experiment [6], 25.2 µM (inactive). For the same molecule, the GI50 in experiment [7] is 20.6 µM (inactive); in [8] it was 20.2 µM (inactive); in [9], 17.1 µM (inactive); in [10] it was 18.8 µM (inactive); in experiment [11] it was 23.9 µM (inactive); in [13] it was 16.7 µM (inactive). Also, the GI50 in [20] is 20.2 µM (inactive); in experiment [14], 16.8 µM (inactive); in [15], 22.1 µM (inactive); in experiment [16], 23.7 µM (inactive); in experiment [17], 17.2 µM (inactive); in experiment [18], 17.4 µM (inactive). In addition, the GI50 in experiment [19] is 19.9 µM (inactive).
For `CC(=O)NNc1nc(C)c(C(=O)NNC(=O)C(=O)Nc2ccc([N+](=O)[O-])cc2[N+](=O)[O-])s1`, the GI50 in [1] is > 100 µM (inactive); in experiment [2] it was > 100 µM (inactive); in [3], > 100 µM (inactive); in [4], > 100 µM (inactive); in experiment [5], 22.3 µM (inactive); in experiment [6] it was > 100 µM (inactive). Further, the GI50 in experiment [8] is 68.9 µM (inactive); in experiment [9] it was > 100 µM (inactive); in [10] it was 55.3 µM (inactive); in experiment [11] it was > 100 µM (inactive); in experiment [12], > 100 µM (inactive); in [13], > 100 µM (inactive). The GI50 in [20] was > 100 µM (inactive); in experiment [14], > 100 µM (inactive); in experiment [15] it was > 100 µM (inactive); in experiment [16], > 100 µM (inactive); in [17], 80.4 µM (inactive); in experiment [18], > 100 µM (inactive). In experiment [19], the GI50 was 68.7 µM (inactive).
As for `Cc1cc(N(CCOS(C)(=O)=O)CCOS(C)(=O)=O)ccc1C=O`, the GI50 in experiment [1] was 10.2 µM (inactive); in [2], 0.449 µM (active); in experiment [3] it was 3.68 µM (inactive); in experiment [4], 1.39 µM (inactive); in experiment [5], 1.08 µM (active); in experiment [6] it was 10.9 µM (inactive). Also, the GI50 is 6.19 µM (inactive) in experiment [7]; 0.979 µM (active) in [8]; 3.68 µM (inactive) in [9]; 4.49 µM (inactive) in experiment [10]; 11.7 µM (inactive) in [11]; 28.9 µM (inactive) in [12]. For the same molecule, the GI50 in [13] is < 0.01 µM (active); in [20] it was 11.7 µM (inactive); in experiment [14] it was 14.7 µM (inactive); in experiment [15] it was 4.35 µM (inactive); in experiment [16] it was 0.379 µM (active); in [18] it was 7.78 µM (inactive). Further, the GI50 in [19] was 8.36 µM (inactive).
With `CCOC(=O)C1=C(C)N(NC(N)=O)C2(O)CCCC(=O)C12C` (centres undefined), the GI50 in experiment [1], in [2], in [3], in experiment [4], in experiment [6] and in experiment [7] was > 100 µM (inactive) each time. Further, the GI50 was > 100 µM (inactive) in [8]; > 100 µM (inactive) in [9]; > 100 µM (inactive) in [10]; > 100 µM (inactive) in [11]; > 10 µM (inactive) in experiment [12]; > 100 µM (inactive) in experiment [13]. In addition, the GI50 in experiment [20], in experiment [14], in [15], in experiment [16], in experiment [17] and in experiment [18] was > 100 µM (inactive) throughout. In addition, in [19], the GI50 was > 100 µM (inactive).
As to `COc1ccc(NC(=O)C(=O)C(C(=O)c2ccccc2)C2OC(=O)c3ccccc32)c([N+](=O)[O-])c1` (centres undefined), the GI50 in [1], in experiment [2], in experiment [3], in experiment [4], in experiment [5] and in experiment [6] was > 100 µM (inactive) each time. The GI50 in experiment [8], in experiment [9], in experiment [10], in [11], in [12] and in experiment [13] was > 100 µM (inactive) throughout. Moreover, the GI50 in experiment [20], in experiment [14], in [15], in experiment [16], in experiment [17] and in experiment [18] was > 100 µM (inactive) in each case. Further, in experiment [19], the GI50 is > 100 µM (inactive).
As to `Cc1[nH]n(C2=NCCN2)c(=O)c1Cc1ccccc1`, the GI50 in experiment [1], in [2], in experiment [3], in experiment [4], in experiment [5] and in experiment [6] was > 100 µM (inactive) in each case. Moreover, the GI50 in experiment [7], in experiment [8], in [10], in experiment [11], in experiment [12] and in experiment [13] was > 100 µM (inactive) in each case. Also, the GI50 in [20], in experiment [14], in experiment [15], in experiment [16], in [17] and in [18] was > 100 µM (inactive) throughout. In experiment [19], the GI50 was > 100 µM (inactive).
